Laboratory results reported in patent US20120095012A1, “TOLUIDINE SULFONAMIDES AND THEIR USE” (Elara Pharmaceuticals GmbH, priority 2008, published 2012).
pEC50: −log10 of the molar value.

Tests used:
[1] = test system: MCF-7 human breast adenocarcinoma cells; HRE-bla HCT116 cell line (colorectal carcinoma); experiment: Cell proliferation assay (ATPlite luminescence); type: cell-based; conditions: ATPlite readout, cell line not given
Description: MCF-7 human breast adenocarcinoma cells were obtained from ATCC (LGC Promochem). The CellSensor® HRE-bla HCT116 cell line (colorectal carcinoma) was obtained from Invitrogen.
Cells were grown under humidified 95% air, 5% CO2 at 37° C. in Dulbecco's modified Eagle's medium (DMEM: MCF-7) or McCoy's 5A medium (HRE-bla HCT116) supplemented with 10% fetal bovine serum (FBS), 100 U/ml penicillin and 100 μg/ml streptomycin, 2 mM L-glutamine, and blasticidin at 5 μg/ml as a selection marker (for the HRE-bla HCT116 cell line only).
Cell proliferation experiments were carried out in 96-well tissue culture plates with seeding of 2000 cells/well in 100 μl of the relevant medium. Cells were subsequently incubated under the conditions mentioned for 24 h prior to addition of compounds.
To determine the degree of inhibition of cell proliferation, cells were treated with ATPlite solution according to the manufacturer's instructions (PerkinElmer, ATPlite 1-step Luminescence ATP Detection Assay System) and luciferase readout measured on an Envision HTS multilabel plate reader (PerkinElmer) in luminescence mode according to established protocols. Raw data were imported into an ActivityBase database (IDBS, ID Business Solutions) and EC50 values calculated using the IDBS program ActivityBase XE.

[2] = target: T1, tubulin (from porcine brain) (Sus scrofa, UniProt P02550+P02554); experiment: Inhibition of in vitro tubulin polymerization (OD 340 nm, 90 min); type: biochemical; conditions: final absorbance at 90 min vs vehicle control, read-out: tubulin inhib. (at 10 μM)
T1 construct: prepared in-house from porcine brain using a standard procedure involving cycles of polymerization/de-polymerization; from tissue; host or cells: porcine brain
Description: To assess the degree of inhibition of in vitro tubulin polymerization, a tubulin solution (prepared in-house from porcine brain using a standard procedure involving cycles of polymerization/de-polymerization, (see Castoldi & Popov (2003) Protein Expr. Purif. 32(1): 83-88), was incubated with varying concentrations of compounds under polymerizing conditions and kinetic experiments performed to determine the amount of polymerization (as measured by changes in OD at 340 nm) taking place over a 90 min period.
Compound solutions were diluted in double-distilled water to yield final 10× solutions containing 5% DMSO. 5 μl solutions were then added to the wells on a 384-well clear-bottom plate (Corning #3711, Corning Inc.) in preparation for the addition of tubulin. The tubulin solution (19.6 mg/ml, in 80 mM K-PIPES [pH 6.8], 1 mM MgCl2, 1 mM EGTA) was re-suspended to a final concentration of 4 mg/ml with ice cold G-PEM buffer (80 mM PIPES [pH 6.8], 2 mM MgCl2, 0.5 mM EGTA, 10% glycerol, 1 mM GTP) and maintained on ice for at least 1 min. 50 μl was then added to the pre-dispensed compound solutions, the plate orbital shaken on a medium setting for 5s, and the first measurement begun immediately.
Experiments were carried out on a Safire^2 ™ monochromator (Tecan) preset to a stable temperature of 37° C.; the degree of polymerization was determined by measuring the absorbance of the solutions at 340 nm every minute over the 90 min cycle. Reported inhibition values were based on the final absorbance at 90 min and calculated with reference to a vehicle control (0.5% DMSO) using the minimum and maximum signals obtained for this sample.

[3] = test system: HIF mediated transcription; experiment: Inhibition of activation of HIF mediated transcription under hypoxic conditions (CellSensor HRE-bla HCT-116 reporter, DFO-induced); type: cell-based; conditions: Homo sapiens; HRE-bla HCT-116 reporter cells, deferoxamine-induced hypoxia, 24 h
Description: Inhibition of an activated HIF signaling response under chemically-induced hypoxic conditions due to compound treatment was determined using the CellSensor® […] HCT-116 stably transfected reporter cell line from Invitrogen according to the manufacturer's instructions. HIF is a transcriptional factor composed of the constitutively expressed HIF 1β subunit and one of three HIFα subunits (HIF1α, HIF2α, HIF3α). This assay is responsive towards HIFα activity in general. In one example, HIF-1, when stabilized by hypoxic conditions, upregulates several genes to promote cell survival in low-oxygen conditions. These include glycolysis enzymes, which allow ATP synthesis in an oxygen-independent manner, and vascular endothelial growth factor (VEGF), which promotes angiogenesis. HIF-1 acts by binding to HIF-responsive elements (HREs) in promoters that generally contain the sequence NCGTG.
Cells were maintained as described previously and seeded into 384-well, clear-bottom plates (Corning 3712) at 15000 cells/well in 32 μl assay medium (Opti-MEM [Invitrogen], 0.5% FBS, 100 U/ml penicillin, 100 μg/ml streptomycin, 0.1 mM non-essential amino acids [NEAA], 1 mM sodium pyruvate, 5 mM HEPES [pH 7.3]). Following a 2 h incubation period, compounds (4 μl) were subsequently added to the cells at 10× concentrations in 5% DMSO and incubated under normal conditions for 30 min. To induce hypoxic conditions, 4 μl of a 2 mM deferoxamine (DFO) solution was added to the cells followed by 24 h incubation under standard assay conditions (as described). Control wells included wells containing only medium (no cells) and wells treated with 0.5% DMSO instead of compound.
Prior to the readout, the Substrate Loading Solution was prepared as described in the manufacturer's protocol and 10 μl added to each well. Following a further 2 h incubation period at room temperature and in the dark, fluorescence was measured at two wavelengths (blue channel: ex. 409 nm, em. 460 nm; green channel: ex. 409 nm, em. 530 nm) on a PerkinElmer Envision HTS. For the analysis, the average signal of the cell-free wells at 460 nm and 530 nm was first subtracted from the blue and green channel data, respectively. The blue/green emission ratios were then calculated for each well, dividing the background-corrected blue emission values by the background-corrected green emission values. IC50 values were determined from these ratios using GraphPad Prism (Prism 5, GraphPad software, Inc.).

T1 sequence (P02550 whole entry): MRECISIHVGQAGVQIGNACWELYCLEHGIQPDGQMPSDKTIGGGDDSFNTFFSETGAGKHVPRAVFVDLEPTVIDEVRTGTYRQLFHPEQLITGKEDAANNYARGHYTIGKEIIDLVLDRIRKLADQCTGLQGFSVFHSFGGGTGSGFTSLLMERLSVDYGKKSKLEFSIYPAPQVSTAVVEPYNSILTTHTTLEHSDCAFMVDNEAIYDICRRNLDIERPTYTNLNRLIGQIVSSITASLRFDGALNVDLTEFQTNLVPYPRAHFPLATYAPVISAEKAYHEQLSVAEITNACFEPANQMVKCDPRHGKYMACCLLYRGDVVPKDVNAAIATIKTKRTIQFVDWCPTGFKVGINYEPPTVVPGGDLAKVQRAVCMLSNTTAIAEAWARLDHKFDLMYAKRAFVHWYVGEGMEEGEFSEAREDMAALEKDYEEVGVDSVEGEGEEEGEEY
T1 sequence (P02554 whole entry): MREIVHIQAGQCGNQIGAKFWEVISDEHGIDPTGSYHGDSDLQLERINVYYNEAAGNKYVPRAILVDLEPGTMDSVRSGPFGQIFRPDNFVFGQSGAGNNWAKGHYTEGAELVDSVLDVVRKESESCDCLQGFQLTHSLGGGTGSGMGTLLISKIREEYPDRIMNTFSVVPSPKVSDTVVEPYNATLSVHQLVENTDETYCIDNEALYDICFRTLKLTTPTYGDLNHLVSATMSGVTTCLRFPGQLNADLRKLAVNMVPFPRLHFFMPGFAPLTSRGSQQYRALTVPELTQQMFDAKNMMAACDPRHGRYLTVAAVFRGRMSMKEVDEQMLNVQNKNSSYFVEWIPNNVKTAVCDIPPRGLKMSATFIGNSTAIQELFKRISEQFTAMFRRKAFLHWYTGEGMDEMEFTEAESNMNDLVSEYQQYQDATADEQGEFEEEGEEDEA

`Cc1cccc(S(=O)(=O)Nc2cc(-c3ccc(C#N)s3)ccc2C)n1` [Example 22, N-(5-(5-cyanothiophen-2-yl)-2-methylphenyl)-6-methylpyridine-2-sulfonamide] gave a pEC50 ([1]; Homo sapiens) of 5.00 to 6.00.

In the case of `COc1ccc(S(=O)(=O)Nc2cc(-c3ccc(C#N)cc3)ccc2C)cn1` [Example 4, 6-Methoxy-pyridine-3-sulfonic acid (4′-cyano-4-methyl-biphenyl-3-yl)-amide], the pEC50 ([1]; Homo sapiens) was > 6.30.

For `Cc1ccc(S(=O)(=O)Nc2cc(-c3ccc(C#N)s3)ccc2C)s1` [Example 3, 5-Methyl-thiophene-2-sulfonic acid [5-(5-cyano-thiophen-2-yl)-2-methyl-phenyl]-amide], the pEC50 ([1]; Homo sapiens) was > 6.30 and the inhibition at 10 µM [2] was < 20%.

With `COc1ccc(S(=O)(=O)Nc2cc(-c3csc(C#N)c3)ccc2C)cn1` [Example 7, N-(5-(5-cyanothiophen-3-yl)-2-methylphenyl)-6-methoxypyridine-3-sulfonamide] the pEC50 ([1]; Homo sapiens) was > 6.30 and the pEC50 [3] was > 6.30.

For `Cc1ccc(-c2ccc(C#N)s2)cc1NS(=O)(=O)c1ccc(Cl)nc1` [Example 28, 6-chloro-N-(5-(5-cyanothiophen-2-yl)-2-methylphenyl)pyridine-3-sulfonamide], the pEC50 ([1]; Homo sapiens) was > 6.30.

`Cc1ccc(-c2ccc(C#N)s2)cc1NS(=O)(=O)c1cn(C)c(C)n1` [Example 15, N-(5-(5-cyanothiophen-2-yl)-2-methylphenyl)-1,2-dimethyl-1H-imidazole-4-sulfonamide] gave a pEC50 ([1]; Homo sapiens) of 5.00 to 6.00.

For `Cc1ccc(S(=O)(=O)Nc2cc(-c3ccc(C#N)s3)ccc2C)nc1` [Example 25, N-(5-(5-cyanothiophen-2-yl)-2-methylphenyl)-5-methylpyridine-2-sulfonamide], the pEC50 ([1]; Homo sapiens) was > 6.30.

`Cc1ccc(-c2ccc(C#N)s2)cc1NS(=O)(=O)c1ccc(Cl)s1` [Example 11, 5-chloro-N-(5-(5-cyanothiophen-2-yl)-2-methylphenyl)thiophene-2-sulfonamide] was tested, and the pEC50 ([1]; Homo sapiens) was 6.00 to 6.30.

For `Cc1ccc(-c2ccc(C#N)s2)cc1NS(=O)(=O)c1cn(C)cn1` [Example 12, N-(5-(5-cyanothiophen-2-yl)-2-methylphenyl)-1-methyl-1H-imidazole-4-sulfonamide], the pEC50 ([1]; Homo sapiens) was 5.00 to 6.00.

For `Cc1ccc(-c2ccc(C#N)s2)cc1NS(=O)(=O)c1ccc(N(C)C)nc1` [Example 29, N-(5-(5-cyanothiophen-2-yl)-2-methylphenyl)-6-(dimethylamino)pyridine-3-sulfonamide], the pEC50 ([1]; Homo sapiens) was > 6.30.

`CCc1ccc(S(=O)(=O)Nc2cc(-c3ccc(C#N)cc3)ccc2C)s1` [Example 5, 5-Ethyl-thiophene-2-sulfonic acid (4′-cyano-4-methyl-biphenyl-3-yl)-amide] was tested, and the pEC50 ([1]; Homo sapiens) was > 6.30.

With `Cc1ccc(-c2ccc(C#N)cc2)cc1NS(=O)(=O)c1sccc1C` [Example 20, N-(4′-cyano-4-methylbiphenyl-3-yl)-3-methylthiophene-2-sulfonamide] the pEC50 ([1]; Homo sapiens) was 5.00 to 6.00.

For `Cc1ccc(S(=O)(=O)Nc2cc(-c3ccc(C#N)s3)ccc2C)cn1` [Example 24, N-(5-(5-cyanothiophen-2-yl)-2-methylphenyl)-6-methylpyridine-3-sulfonamide], the pEC50 ([1]; Homo sapiens) was > 6.30 and the pEC50 [3] was > 6.30.

Compound `Cc1ccc(-c2ccc(C#N)s2)cc1NS(=O)(=O)c1ccc(C(F)(F)F)cn1` [Example 16, N-(5-(5-cyanothiophen-2-yl)-2-methylphenyl)-5-(trifluoromethyl)pyridine-2-sulfonamide] has a pEC50 ([1]; Homo sapiens) of 5.00 to 6.00.

For `Cc1ccc(-c2ccc(C#N)cc2)cc1NS(=O)(=O)c1ccc(Cl)nc1` [Example 26, 6-chloro-N-(4′-cyano-4-methylbiphenyl-3-yl)pyridine-3-sulfonamide], the pEC50 ([1]; Homo sapiens) was > 6.30.

Compound `Cc1ccc(-c2ccc(C#N)s2)cc1NS(=O)(=O)c1c(C)noc1C` [Example 17, N-(5-(5-cyanothiophen-2-yl)-2-methylphenyl)-3,5-dimethylisoxazole-4-sulfonamide] has a pEC50 ([1]; Homo sapiens) of 5.00 to 6.00.

With `Cc1ccc(-c2ccc(C#N)s2)cc1NS(=O)(=O)c1cccs1` [Example 9, N-(5-(5-cyanothiophen-2-yl)-2-methylphenyl)thiophene-2-sulfonamide] the pEC50 ([1]; Homo sapiens) was > 6.30.

Compound `Cc1ccc(-c2ccc(C#N)s2)cc1NS(=O)(=O)c1ccco1` [Example 6, Furan-2-sulfonic acid [5-(5-cyano-thiophen-2-yl)-2-methyl-phenyl]-amide] has a pEC50 ([1]; Homo sapiens) of 5.00 to 6.00.

With `COc1ccc(S(=O)(=O)Nc2cc(-c3ccc(C#N)c(OC)c3)ccc2C)cn1` [Example 18, N-(4′-cyano-3′-methoxy-4-methylbiphenyl-3-yl)-6-methoxypyridine-3-sulfonamide] the pEC50 ([1]; Homo sapiens) was > 6.30 and the pEC50 [3] was > 6.30.

`Cc1ccc(S(=O)(=O)Nc2cc(-c3ccc(C#N)cc3)ccc2C)s1` [Example 8, N-(4′-cyano-4-methylbiphenyl-3-yl)-5-methylthiophene-2-sulfonamide] was tested, and the pEC50 ([1]; Homo sapiens) was > 6.30 and the pEC50 [3] was > 6.30.

In the case of `Cc1ccc(-c2ccc(C#N)s2)cc1NS(=O)(=O)c1ccsc1` [Example 10, N-(5-(5-cyanothiophen-2-yl)-2-methylphenyl)thiophene-3-sulfonamide], the pEC50 ([1]; Homo sapiens) was 6.00 to 6.30.

`Cc1ccc(-c2ccc(C#N)cc2)cc1NS(=O)(=O)c1ccc(C#N)nc1` [Example 21, 6-cyano-N-(4′-cyano-4-methylbiphenyl-3-yl)pyridine-3-sulfonamide] was tested, and the pEC50 ([1]; Homo sapiens) was 5.00 to 6.00.

Compound “N-(4′-cyano-4-methylbiphenyl-3-yl)-6-(dimethylamino)pyridine-3-sulfonamide [Example 27]” has a pEC50 [1] of 6.00 to 6.30.

`Cc1ccc(S(=O)(=O)Nc2cc(-c3ccc(C#N)cc3)ccc2C)cn1` [Example 23, N-(4′-cyano-4-methylbiphenyl-3-yl)-6-methylpyridine-3-sulfonamide] was tested, and the pEC50 ([1]; Homo sapiens) was > 6.30 and the pEC50 [3] was > 6.30.

`Cc1ccc(-c2ccc(C#N)s2)cc1NS(=O)(=O)c1cccnc1` [Example 14, N-(5-(5-cyanothiophen-2-yl)-2-methylphenyl)pyridine-3-sulfonamide] showed a pEC50 ([1]; Homo sapiens) of 5.00 to 6.00.

`Cc1cc(S(=O)(=O)Nc2cc(-c3ccc(C#N)s3)ccc2C)c(C)s1` [Example 13, N-(5-(5-cyanothiophen-2-yl)-2-methylphenyl)-2,5-dimethylthiophene-3-sulfonamide] showed a pEC50 ([1]; Homo sapiens) of 5.00 to 6.00.

With `Cc1cc(S(=O)(=O)Nc2cc(-c3ccc(C#N)s3)ccc2C)c(C(F)(F)F)o1` [Example 19, N-(5-(5-cyanothiophen-2-yl)-2-methylphenyl)-5-methyl-2-(trifluoromethyl)furan-3-sulfonamide] the pEC50 ([1]; Homo sapiens) was 5.00 to 6.00.
